Assay results: patent US20120034296A1 (priority 2009, published 2012)
Where a name gives a salt, the structure may show the parent alone. Read-outs that look alike come from different tables or passages of the source.

Assays:
[1] = tested on: Gadd45a, ATF3, SmagP, Cacna2d1; details: rat, in vivo

For `C[C@@H]1C[C@H]2[C@@H]3CCC4=CC(=O)C=C[C@]4(C)[C@@]3(F)[C@@H](O)C[C@]2(C)[C@@]1(O)C(=O)CO` [dexamethasone], the myotoxicity (C2C12 cells; mouse) was “not myotoxic at up to 2 days”, the survival (C2C12 cells; mouse) was 80±5% and the viability (C2C12 cells; mouse) was over 90%. It also gave a decrease in survival (PC12 cells; rat) of 20%.
`CN(C)CCC=C1c2ccccc2CCc2ccccc21` [amitriptyline] was tested, and the “expression of Gadd45a, ATF3, SmagP, Cacna2d1 in dorsal root ganglia” value [1] was “dramatically upregulated”.
In the case of `CCCCN1CCCCC1C(=O)Nc1c(C)cccc1C` (stereo not shown) [bupivacaine solution, bupivacaine hydrochloride], the myotoxicity (C2C12 cells) is reported as “increased with concentration and duration of exposure” and the neurotoxicity / cytotoxicity (PC12 cells) is reported as “increased with concentration and duration of exposure”.
